Broadly, the Kd is the free concentration of one partner at which half of the binding sites on the other are occupied at equilibrium, for simple one-to-one binding. A high value points to a looser complex.

This is an account of results in paper PMC12851581, “Allosteric effects of the coupling cation in melibiose transporter MelB” (eLife, 2026).

Experiment [1] has as its target T1, melibiose permease MelBSt (WT) (Salmonella enterica, UniProt P30878). Nature of the experiment: ITC, […] NaCl, […] °C. It is filed as binding. Set-up: gene melB; WT MelBSt/CHis10. In general terms: ITC needs no label: the signal is the heat of the interaction.
In experiment [2] the target is T1, melibiose permease MelBSt (WT). Nature of the experiment: α-NPG downhill transport in E. coli DW2 cells (p-nitrophenol release). Set-up: gene melB; WT MelBSt/CHis10 expressed in E. coli DW2 cells. The format is cell-based.
For experiment [3] the target is unchanged. Nature of the experiment: ITC, […] NaCl, […] °C; [3H]raffinose transport in cells. It is filed as binding. Set-up: gene melB; WT MelBSt/CHis10.

T1 sequence (P30878 whole entry): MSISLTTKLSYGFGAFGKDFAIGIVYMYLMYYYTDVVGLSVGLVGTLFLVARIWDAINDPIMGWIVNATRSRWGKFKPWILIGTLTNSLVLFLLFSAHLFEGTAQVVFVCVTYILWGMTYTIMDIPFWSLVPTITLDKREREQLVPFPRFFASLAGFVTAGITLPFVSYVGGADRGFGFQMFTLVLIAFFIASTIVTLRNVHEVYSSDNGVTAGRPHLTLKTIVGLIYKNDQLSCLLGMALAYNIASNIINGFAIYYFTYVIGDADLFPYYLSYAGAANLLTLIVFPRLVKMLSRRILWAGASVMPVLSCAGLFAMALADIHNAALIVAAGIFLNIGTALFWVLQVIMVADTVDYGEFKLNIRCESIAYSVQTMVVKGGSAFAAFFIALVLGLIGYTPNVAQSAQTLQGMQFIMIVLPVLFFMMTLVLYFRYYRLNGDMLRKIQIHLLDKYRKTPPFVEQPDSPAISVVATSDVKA

`CO[C@H]1O[C@H](CO)[C@H](O)[C@H](O)[C@H]1O` [α-MG, methyl α-D-galactoside] came in with a Kd in experiment [1] of 880 ± 40 µM.
As to `O=[N+]([O-])c1ccc(O[C@H]2O[C@H](CO)[C@H](O)[C@H](O)[C@H]2O)cc1` [α-NPG, p-Nitrophenyl α-D-galactoside], the “α-NPG downhill transport in E. coli DW2 cells (p-nitrophenol release)” value in experiment [2] is “both WT MelBSt and D59C uniport mutant mediated the translocation of α-NPG”.
Turning to `OC[C@H]1O[C@H](OC[C@H]2O[C@H](O[C@]3(CO)O[C@H](CO)[C@@H](O)[C@@H]3O)[C@H](O)[C@@H](O)[C@@H]2O)[C@H](O)[C@@H](O)[C@H]1O` [raffinose, Raffinose], in experiment [3], the Kd was 3790 ± 530 µM.
